Values quoted from earlier work as cited in patent US20020028792A1, “Combinations of bisphosphonates, estrogens and estrogenic agents” (American Home Products Corporation, priority 2000, published 2002).

Conditions: Paget's disease of the bone; 30-mg tablets

In the case of `O=P(O)(O)C(O)(Cc1cccnc1)P(=O)(O)O` [Risedronate], the “effectiveness in clinical trials” value is listed as “effective”.
